Measured values: patent US20230085307A1, “PYRIDAZINONE COMPOUND AND HERBICIDE” (NISSAN CHEMICAL CORPORATION, priority 2019, published 2023)

Key:
late watergrass = assay: Test Example 1: herbicidal activity, application before weed generation under submerged conditions (Table 16, symbol A); format: in vivo, late watergrass (Echinochloa oryzicola); conditions: 320 g/ha applied herbicide
In short: (§1)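 Alluvial soil was flooded to 4 cm depth, weed seeds were sown mixed and 2.5-leaf rice seedlings were transplanted. On sowing day, the compound's emulsion, diluted in water to a set dose, was applied to the water surface. Plants grew at 25–30 °C and were scored 0–5 after three weeks.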

wild oat [1] = assay: Test Example 5: herbicidal effect by foliage application, plastic box (Table 20, symbol I); format: in vivo, wild oat (Avena fatua); conditions: foliage application, 320 g/ha, evaluated three weeks after application
In short: (§2)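 Plants were sown into sterilized diluvial soil under about 1.5 cm cover and kept in a greenhouse at 25° C. to 30° C. Fourteen days on, foliage received an even spray of the diluted emulsion. Herbicidal or crop effect was judged three weeks afterwards.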

blackgrass [2] = assay: Test Example 5: herbicidal effect by foliage application, plastic box (Table 20, symbol J); format: in vivo, blackgrass (Alopecurus myosuroides); conditions: foliage application, 320 g/ha, evaluated three weeks after application
In short: as §2

Chinese sprangletop = assay: Test Example 3: herbicidal effect by foliage application, Wagner pot (Table 18, symbol D); format: in vivo, chinese sprangletop (Leptochloa chinensis); conditions: amount of applied herbicide 320 g/ha
In short: (§3)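 Plants were sown in alluvial soil held under 0.1–0.5 cm standing water and grown 14 days in a greenhouse at 25–30 °C. An emulsifiable formulation, water-diluted to the set dose, was then sprayed onto the foliage, and effects were scored three weeks later using previously defined criteria.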

oval-leafed pondweed = assay: Test Example 1: herbicidal activity, application before weed generation under submerged conditions (Table 16, symbol C); format: in vivo, oval-leafed pondweed (Monochoria vaginalis); conditions: 320 g/ha applied herbicide
In short: as §1

velvetleaf [3] = assay: Test Example 5: herbicidal effect by foliage application, plastic box (Table 20, symbol M); format: in vivo, velvetleaf (Abutilon theophrasti); conditions: foliage application, 320 g/ha, evaluated three weeks after application
In short: as §2

velvetleaf [4] = assay: Test Example 4: herbicidal effect by soil treatment (Table 19, symbol M); format: in vivo, velvetleaf (Abutilon theophrasti); conditions: amount of applied herbicide 320 g/ha
In short: (§4)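 In this soil treatment, the formulated compound reached the seeds only through the soil: seeds were buried about 1.5 cm deep in sterilized diluvial soil, then the diluted emulsion was sprayed over the surface. After three weeks at 25° C. to 30° C. in a greenhouse, effects were graded on criteria from an earlier test.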

Japanese bulrush = assay: Test Example 1: herbicidal activity, application before weed generation under submerged conditions (Table 16, symbol B); format: in vivo, Japanese bulrush (Schoenoplectus juncoides); conditions: 320 g/ha applied herbicide
In short: as §1

false cleavers = assay: Test Example 4: herbicidal effect by soil treatment (Table 19, symbol Q); format: in vivo, false cleavers (Galium spurium); conditions: amount of applied herbicide 320 g/ha
In short: as §4

persian speedwell [5] = assay: Test Example 5: herbicidal effect by foliage application, plastic box (Table 20, symbol R); format: in vivo, Persian speedwell (Veronica persica); conditions: foliage application, 320 g/ha, evaluated three weeks after application
In short: as §2

wild oat [6] = assay: Test Example 4: herbicidal effect by soil treatment (Table 19, symbol I); format: in vivo, wild oat (Avena fatua); conditions: amount of applied herbicide 320 g/ha
In short: as §4

barnyard grass [7] = assay: Test Example 5: herbicidal effect by foliage application, plastic box (Table 20, symbol H); format: in vivo, barnyard grass (Echinochloa crus-galli); conditions: foliage application, 320 g/ha, evaluated three weeks after application
In short: as §2

persian speedwell [8] = assay: Test Example 4: herbicidal effect by soil treatment (Table 19, symbol R); format: in vivo, Persian speedwell (Veronica persica); conditions: amount of applied herbicide 320 g/ha
In short: as §4

redroot pigweed [9] = assay: Test Example 4: herbicidal effect by soil treatment (Table 19, symbol N); format: in vivo, redroot pigweed (Amaranthus retroflexus); conditions: amount of applied herbicide 320 g/ha
In short: as §4

green foxtail [10] = assay: Test Example 4: herbicidal effect by soil treatment (Table 19, symbol G); format: in vivo, green foxtail (Setaria viridis); conditions: amount of applied herbicide 320 g/ha
In short: as §4

southern crabgrass [11] = assay: Test Example 5: herbicidal effect by foliage application, plastic box (Table 20, symbol F); format: in vivo, southern crabgrass (Digitaria ciliaris); conditions: foliage application, 320 g/ha, evaluated three weeks after application
In short: as §2

lambsquarters [12] = assay: Test Example 4: herbicidal effect by soil treatment (Table 19, symbol O); format: in vivo, lambsquarters (Chenopodium album); conditions: amount of applied herbicide 320 g/ha
In short: as §4

Italian ryegrass [13] = assay: Test Example 4: herbicidal effect by soil treatment (Table 19, symbol K); format: in vivo, Italian ryegrass (Lolium multiflorum); conditions: amount of applied herbicide 320 g/ha
In short: as §4

green foxtail [14] = assay: Test Example 5: herbicidal effect by foliage application, plastic box (Table 20, symbol G); format: in vivo, green foxtail (Setaria viridis); conditions: foliage application, 320 g/ha, evaluated three weeks after application
In short: as §2

windgrass [15] = assay: Test Example 4: herbicidal effect by soil treatment (Table 19, symbol L); format: in vivo, windgrass (Apera spica-venti); conditions: amount of applied herbicide 320 g/ha
In short: as §4

Italian ryegrass [16] = assay: Test Example 5: herbicidal effect by foliage application, plastic box (Table 20, symbol K); format: in vivo, Italian ryegrass (Lolium multiflorum); conditions: foliage application, 320 g/ha, evaluated three weeks after application
In short: as §2

southern crabgrass [17] = assay: Test Example 4: herbicidal effect by soil treatment (Table 19, symbol F); format: in vivo, southern crabgrass (Digitaria ciliaris); conditions: amount of applied herbicide 320 g/ha
In short: as §4

barnyard grass [18] = assay: Test Example 4: herbicidal effect by soil treatment (Table 19, symbol H); format: in vivo, barnyard grass (Echinochloa crus-galli); conditions: amount of applied herbicide 320 g/ha
In short: as §4

redroot pigweed [19] = assay: Test Example 5: herbicidal effect by foliage application, plastic box (Table 20, symbol N); format: in vivo, redroot pigweed (Amaranthus retroflexus); conditions: foliage application, 320 g/ha, evaluated three weeks after application
In short: as §2

blackgrass [20] = assay: Test Example 4: herbicidal effect by soil treatment (Table 19, symbol J); format: in vivo, blackgrass (Alopecurus myosuroides); conditions: amount of applied herbicide 320 g/ha
In short: as §4

chickweed [21] = assay: Test Example 5: herbicidal effect by foliage application, plastic box (Table 20, symbol P); format: in vivo, common chickweed (Stellaria media); conditions: foliage application, 320 g/ha, evaluated three weeks after application
In short: as §2

chickweed [22] = assay: Test Example 4: herbicidal effect by soil treatment (Table 19, symbol P); format: in vivo, common chickweed (Stellaria media); conditions: amount of applied herbicide 320 g/ha
In short: as §4

windgrass [23] = assay: Test Example 5: herbicidal effect by foliage application, plastic box (Table 20, symbol L); format: in vivo, windgrass (Apera spica-venti); conditions: foliage application, 320 g/ha, evaluated three weeks after application
In short: as §2

barnyard grass [24] = assay: Test Example 3: herbicidal effect by foliage application, Wagner pot (Table 18, symbol H); format: in vivo, barnyard grass (Echinochloa crus-galli); conditions: amount of applied herbicide 320 g/ha
In short: as §3

lambsquarters [25] = assay: Test Example 5: herbicidal effect by foliage application, plastic box (Table 20, symbol O); format: in vivo, lambsquarters (Chenopodium album); conditions: foliage application, 320 g/ha, evaluated three weeks after application
In short: as §2

SMILES: COc1cc(F)ccc1-c1sc2ccc(NC(C)=O)cc2c1-c1c(O)c(C)nn(C)c1=O [2-175]
- Herbicidal effect on A: late watergrass (grade 0-5) (late watergrass): 3 (Herbicidal rate of 40% or more and less than 70%)
- herbicidal effect on I: wild oat (criteria 0-5) (wild oat [1]): 3 (Herbicidal rate of 40% or more and less than 70%)
- herbicidal effect on J: blackgrass (criteria 0-5) (blackgrass [2]): 5 (Herbicidal rate of 90% or more (almost completely withered))
- herbicidal effect on D: Chinese sprangletop (Chinese sprangletop): 3 (Herbicidal rate of 40% or more and less than 70%)
- Herbicidal effect on C: oval-leafed pondweed (grade 0-5) (oval-leafed pondweed): 0 (Herbicidal rate of 5% or less (almost no effect))
- herbicidal effect on M: velvetleaf (criteria 0-5) (velvetleaf [3]): 3 (Herbicidal rate of 40% or more and less than 70%)
- M: velvetleaf, herbicidal effect rating (velvetleaf [4]): 0 (Herbicidal rate of 5% or less (almost no effect))
- Herbicidal effect on B: Japanese bulrush (grade 0-5) (Japanese bulrush): 0 (Herbicidal rate of 5% or less (almost no effect))
- Q: false cleavers, herbicidal effect rating (false cleavers): 0 (Herbicidal rate of 5% or less (almost no effect))
- herbicidal effect on R: persian speedwell (criteria 0-5) (persian speedwell [5]): 1 (Herbicidal rate of 5% or more and less than 20%)
- I: wild oat, herbicidal effect rating (wild oat [6]): 0 (Herbicidal rate of 5% or less (almost no effect))
- herbicidal effect on H: barnyard grass (criteria 0-5) (barnyard grass [7]): 1 (Herbicidal rate of 5% or more and less than 20%)
- R: persian speedwell, herbicidal effect rating (persian speedwell [8]): 0 (Herbicidal rate of 5% or less (almost no effect))
- N: redroot pigweed, herbicidal effect rating (redroot pigweed [9]): 4 (Herbicidal rate of 70% or more and less than 90%)
- G: green foxtail, herbicidal effect rating (green foxtail [10]): 0 (Herbicidal rate of 5% or less (almost no effect))
- herbicidal effect on F: southern crabgrass (criteria 0-5) (southern crabgrass [11]): 3 (Herbicidal rate of 40% or more and less than 70%)
- O: lambsquarters, herbicidal effect rating (lambsquarters [12]): 4 (Herbicidal rate of 70% or more and less than 90%)
- K: Italian ryegrass, herbicidal effect rating (Italian ryegrass [13]): 0 (Herbicidal rate of 5% or less (almost no effect))
- herbicidal effect on G: green foxtail (criteria 0-5) (green foxtail [14]): 4 (Herbicidal rate of 70% or more and less than 90%)
- L: windgrass, herbicidal effect rating (windgrass [15]): 0 (Herbicidal rate of 5% or less (almost no effect))
- herbicidal effect on K: Italian ryegrass (criteria 0-5) (Italian ryegrass [16]): 0 (Herbicidal rate of 5% or less (almost no effect))
- F: southern crabgrass, herbicidal effect rating (southern crabgrass [17]): 0 (Herbicidal rate of 5% or less (almost no effect))
- H: barnyard grass, herbicidal effect rating (barnyard grass [18]): 0 (Herbicidal rate of 5% or less (almost no effect))
- herbicidal effect on N: redroot pigweed (criteria 0-5) (redroot pigweed [19]): 5 (Herbicidal rate of 90% or more (almost completely withered))
- J: blackgrass, herbicidal effect rating (blackgrass [20]): 0 (Herbicidal rate of 5% or less (almost no effect))
- herbicidal effect on P: chickweed (criteria 0-5) (chickweed [21]): 5 (Herbicidal rate of 90% or more (almost completely withered))
- P: chickweed, herbicidal effect rating (chickweed [22]): 0 (Herbicidal rate of 5% or less (almost no effect))
- herbicidal effect on L: windgrass (criteria 0-5) (windgrass [23]): 5 (Herbicidal rate of 90% or more (almost completely withered))
- herbicidal effect on H: barnyard grass (barnyard grass [24]): 4 (Herbicidal rate of 70% or more and less than 90%)
- herbicidal effect on O: lambsquarters (criteria 0-5) (lambsquarters [25]): 5 (Herbicidal rate of 90% or more (almost completely withered))
